Measurements taken from PubChem BioAssay AID328 (DTP/NCI, 2004).
Values joined by “and” are separate entries in the source; they are usually repeats but may differ in a detail not shown here. Equal entries are not always repeated. Inconclusive results and toxic doses are left out.

System: BDF1 mice, P388 leukemia ip, median survival T/C
Assay: NCI In Vivo Anticancer Drug Screen. Data for tumor model P388 Leukemia (intraperitoneal) in B6D2F1 (BDF1) mice
Details: endpoint: median survival time, higher = longer survival
How it was run: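 Steps: implant the tumour, treat one group with compound and another with vehicle, record survival, then divide treated by control.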

[1] = dose: 25.0 mg/kg/injection, schedule: Q01DX009 (ip), vehicle: saline with Tween-80
[2] = dose: 25.0 mg/kg/injection, schedule: Q04DX003 (ip), vehicle: saline with Tween-80
[3] = dose: 50.0 mg/kg/injection, schedule: Q01DX009 (ip), vehicle: saline with Tween-80
[4] = dose: 100.0 mg/kg/injection, schedule: Q01DX009 (ip), vehicle: saline with Tween-80
[5] = dose: 100.0 mg/kg/injection, schedule: Q04DX003 (ip), vehicle: saline with Tween-80
[6] = dose: 50.0 mg/kg/injection, schedule: Q01DX009 (ip), vehicle: Klucel (hydroxypropylcellulose) (HPC)
[7] = dose: 100.0 mg/kg/injection, schedule: Q01DX009 (ip), vehicle: Klucel (hydroxypropylcellulose) (HPC)
[8] = dose: 200.0 mg/kg/injection, schedule: Q01DX009 (ip), vehicle: Klucel (hydroxypropylcellulose) (HPC)
[9] = dose: 200.0 mg/kg/injection, schedule: Q04DX003 (ip), vehicle: Klucel (hydroxypropylcellulose) (HPC)
[10] = dose: 25.0 mg/kg/injection, schedule: Q01DX009 (ip), vehicle: saline
[11] = dose: 50.0 mg/kg/injection, schedule: Q01DX009 (ip), vehicle: saline
[12] = dose: 200.0 mg/kg/injection, schedule: Q01DX009 (ip), vehicle: saline with Tween-80
[13] = dose: 200.0 mg/kg/injection, schedule: Q01DX009 (ip), vehicle: saline
[14] = dose: 6.25 mg/kg/injection, schedule: Q01DX009 (ip), vehicle: Klucel (hydroxypropylcellulose) (HPC)
[15] = dose: 12.5 mg/kg/injection, schedule: Q01DX009 (ip), vehicle: Klucel (hydroxypropylcellulose) (HPC)
[16] = dose: 25.0 mg/kg/injection, schedule: Q01DX009 (ip), vehicle: Klucel (hydroxypropylcellulose) (HPC)
[17] = dose: 12.5 mg/kg/injection, schedule: Q01DX009 (ip), vehicle: saline
[18] = dose: 12.5 mg/kg/injection, schedule: Q04DX003 (ip), vehicle: saline
[19] = dose: 25.0 mg/kg/injection, schedule: Q04DX003 (ip), vehicle: saline
[20] = dose: 50.0 mg/kg/injection, schedule: Q04DX003 (ip), vehicle: saline
[21] = dose: 200.0 mg/kg/injection, schedule: Q04DX003 (ip), vehicle: saline with Tween-80
[22] = dose: 400.0 mg/kg/injection, schedule: Q04DX003 (ip), vehicle: saline with Tween-80

COc1ccc(/C=N/NC(=O)C[n+]2ccccc2)c(OC)c1
T/C [1]: 104 % of control
T/C [2]: 118 % of control
T/C [3]: 109 % of control
T/C (dose: 50.0 mg/kg/injection, schedule: Q04DX003 (ip), vehicle: saline with Tween-80): 104 % of control
T/C [4]: 100 % of control
T/C [5]: 104 % of control

CC[C@H](c1ccc(O)cc1)[C@@H](CC)c1ccc(O)cc1
T/C [6]: 90 % of control
T/C [7]: 100 % of control
T/C (dose: 100.0 mg/kg/injection, schedule: Q04DX003 (ip), vehicle: other): 100 % of control
T/C (dose: 132.0 mg/kg/injection, schedule: Q04DX003 (ip), vehicle: Klucel (hydroxypropylcellulose) (HPC)): 104 % of control and 120 % of control
T/C [8]: 104 % of control
T/C [9]: 104 % of control and 120 % of control
T/C (dose: 300.0 mg/kg/injection, schedule: Q04DX003 (ip), vehicle: Klucel (hydroxypropylcellulose) (HPC)): 109 % of control and 110 % of control
T/C (dose: 400.0 mg/kg/injection, schedule: Q04DX003 (ip), vehicle: other): 105 % of control

OC(CN1CCCCC1)c1cc(-c2ccccc2)no1 (centres undefined)
T/C [10]: 100 % of control
T/C [3]: 100 % of control
T/C [11]: 105 % of control
T/C [4]: 100 % of control
T/C (dose: 100.0 mg/kg/injection, schedule: Q01DX009 (ip), vehicle: saline): 107 % of control
T/C [12]: 105 % of control
T/C [13]: 88 % of control

Cc1ccc(OC/C=C/CSc2ccc(C)cc2)cc1
T/C (dose: 100.0 mg/kg/injection, schedule: Q04DX003 (ip), vehicle: Klucel (hydroxypropylcellulose) (HPC)): 108 % of control
T/C [9]: 108 % of control
T/C (dose: 400.0 mg/kg/injection, schedule: Q04DX003 (ip), vehicle: Klucel (hydroxypropylcellulose) (HPC)): 108 % of control

O=C1C(Br)=CC(=NCl)C=C1Br
T/C (dose: 3.13 mg/kg/injection, schedule: Q01DX009 (ip), vehicle: Klucel (hydroxypropylcellulose) (HPC)): 118 % of control
T/C [14]: 112 % of control
T/C [15]: 120 % of control
T/C [16]: 103 % of control

Cc1nc2ccc(O)cc2cc1CBr
T/C (dose: 6.25 mg/kg/injection, schedule: Q01DX009 (ip), vehicle: saline): 94 % of control and 105 % of control and 106 % of control
T/C (dose: 6.25 mg/kg/injection, schedule: Q04DX003 (ip), vehicle: saline): 98 % of control
T/C [17]: 101 % of control and 113 % of control and 118 % of control
T/C [18]: 107 % of control
T/C [10]: 112 % of control and 119 % of control
T/C [19]: 107 % of control
T/C (dose: 40.0 mg/kg/injection, schedule: Q01DX009 (ip), vehicle: saline): 103 % of control
T/C [20]: 107 % of control

COc1cc(Br)c(CCC#N)cc1OC
T/C [3]: 91 % of control
T/C [4]: 110 % of control
T/C [12]: 92 % of control

CN=C(N)c1ccc(N=C(N)c2ccc(N=C(N)c3ccc(NC(=O)Nc4ccc(NC(=O)Nc5ccc(C(N)=Nc6ccc(C(N)=Nc7ccc(C(N)=NC)cc7)cc6)cc5)cc4)cc3)cc2)cc1
T/C (dose: 3.0 mg/kg/injection, schedule: Q01DX009 (ip), vehicle: saline with Tween-80): 162 % of control
T/C (dose: 5.0 mg/kg/injection, schedule: Q01DX009 (ip), vehicle: saline with Tween-80): 183 % of control
T/C (dose: 8.0 mg/kg/injection, schedule: Q01DX009 (ip), vehicle: saline with Tween-80): 230 % of control and 162 % of control
T/C (dose: 12.0 mg/kg/injection, schedule: Q01DX009 (ip), vehicle: saline with Tween-80): 150 % of control
T/C (dose: 12.0 mg/kg/injection, schedule: Q04DX003 (ip), vehicle: saline with Tween-80): 250 % of control
T/C (dose: 18.0 mg/kg/injection, schedule: Q01DX009 (ip), vehicle: saline with Tween-80): 92 % of control
T/C (dose: 18.0 mg/kg/injection, schedule: Q04DX003 (ip), vehicle: saline with Tween-80): 213 % of control and 216 % of control
T/C [1]: 109 % of control
T/C [2]: 250 % of control and 204 % of control
T/C (dose: 37.0 mg/kg/injection, schedule: Q04DX003 (ip), vehicle: saline with Tween-80): 170 % of control

CC[N+](CC)(CC)CC
T/C (dose: 3.13 mg/kg/injection, schedule: Q01DX009 (ip), vehicle: saline with Tween-80): 110 % of control
T/C (dose: 6.0 mg/kg/injection, schedule: Q01DX009 (ip), vehicle: saline with Tween-80): 183 % of control
T/C (dose: 9.0 mg/kg/injection, schedule: Q01DX009 (ip), vehicle: saline with Tween-80): 94 % of control
T/C [17]: 107 % of control
T/C [18]: 95 % of control
T/C [10]: 107 % of control
T/C [19]: 91 % of control
T/C [11]: 92 % of control
T/C [20]: 100 % of control

CNc1ccc2c(c1)C(=O)c1c(C)n(C)c3cccc-2c13
T/C (dose: 12.5 mg/kg/injection, schedule: Q01DX005 (ip), vehicle: saline with Tween-80): 98 % of control
T/C (dose: 25.0 mg/kg/injection, schedule: Q01DX005 (ip), vehicle: saline with Tween-80): 98 % of control

CCCCC[C@H](O)/C=C/[C@H]1[C@H](O)CC(=O)[C@@H]1C/C=C\CCCC(=O)O
T/C (dose: 50.0 mg/kg/injection, schedule: Q04DX002 (ip), vehicle: Klucel (hydroxypropylcellulose) (HPC)): 122 % of control
T/C (dose: 100.0 mg/kg/injection, schedule: Q04DX002 (ip), vehicle: Klucel (hydroxypropylcellulose) (HPC)): 105 % of control
T/C (dose: 200.0 mg/kg/injection, schedule: Q04DX002 (ip), vehicle: Klucel (hydroxypropylcellulose) (HPC)): 114 % of control
T/C (dose: 400.0 mg/kg/injection, schedule: Q04DX002 (ip), vehicle: Klucel (hydroxypropylcellulose) (HPC)): 114 % of control

Nc1cccc2c1C(=O)c1cccc(NC(=O)c3ccccc3)c1C2=O
T/C [14]: 104 % of control
T/C [15]: 109 % of control
T/C [16]: 116 % of control
T/C [6]: 113 % of control
T/C [7]: 115 % of control
T/C [8]: 122 % of control
T/C (dose: 400.0 mg/kg/injection, schedule: Q01DX009 (ip), vehicle: Klucel (hydroxypropylcellulose) (HPC)): 151 % of control

Cc1n[nH]c(C)c1Br
T/C (dose: 75.0 mg/kg/injection, schedule: Q01DX009 (ip), vehicle: saline with Tween-80): 95 % of control
T/C (dose: 150.0 mg/kg/injection, schedule: Q01DX009 (ip), vehicle: saline with Tween-80): 98 % of control
T/C (dose: 300.0 mg/kg/injection, schedule: Q01DX009 (ip), vehicle: saline with Tween-80): 95 % of control

C[C@H]1[C@H](O)[C@H]2[C@@H](CCC3=CC(=O)CC[C@@]32C)[C@@H]2CC[C@H](O)[C@@]12C
T/C [4]: 100 % of control
T/C [5]: 91 % of control
T/C [12]: 87 % of control and 100 % of control
T/C [21]: 95 % of control
T/C (dose: 400.0 mg/kg/injection, schedule: Q01DX009 (ip), vehicle: saline with Tween-80): 87 % of control and 118 % of control
T/C [22]: 91 % of control

O=S(=O)(O)c1cc(S(=O)(=O)O)c2cc(N=Nc3ccc(N(CC4CO4)CC4CO4)cc3)ccc2c1 (centres undefined)
T/C (dose: 100.0 mg/kg/injection, schedule: Q01DX001 (ip), vehicle: saline): 108 % of control
T/C (dose: 200.0 mg/kg/injection, schedule: Q01DX001 (ip), vehicle: saline): 102 % of control
T/C (dose: 400.0 mg/kg/injection, schedule: Q01DX001 (ip), vehicle: saline): 113 % of control

Clc1cccc(N=c2cc3oc4ccccc4nc-3cc2Nc2cccc(Cl)c2)c1
T/C (dose: 12.5 mg/kg/injection, schedule: Q01DX009 (ip), vehicle: saline with Tween-80): 96 % of control
T/C [1]: 99 % of control
T/C [3]: 93 % of control

CC(C)NC(=O)c1ccccc1-[s+]1c2ccccc2c(=O)n1C(C)C (centres undefined)
T/C [5]: 94 % of control
T/C [21]: 96 % of control
T/C [22]: 96 % of control

c1ccc(SC23CC4CC(CC(C4)C2)C3)nc1
T/C (dose: 100.0 mg/kg/injection, schedule: Q01DX001 (ip), vehicle: Klucel (hydroxypropylcellulose) (HPC)): 100 % of control
T/C (dose: 200.0 mg/kg/injection, schedule: Q01DX001 (ip), vehicle: Klucel (hydroxypropylcellulose) (HPC)): 90 % of control
T/C (dose: 400.0 mg/kg/injection, schedule: Q01DX001 (ip), vehicle: Klucel (hydroxypropylcellulose) (HPC)): 100 % of control

CC(=O)CC(=O)Nc1nc2ccccc2s1
T/C [11]: 94 % of control
T/C [13]: 105 % of control
